# Experimental data as given in patent publication US20020049193A1, “N-linked sulfonamides of heterocyclic thioesters” (GPI NIL HOLDINGS, INC., priority 1996, published 2002).
# Read-outs that look alike come from different tables or passages of the source.
# Legend:
# [1] = target: FKBP12 (Homo sapiens, UniProt P62942); assay: Ki test procedure: inhibition of peptidyl-prolyl isomerase (rotamase) activity, chymotrypsin-coupled assay; type: biochemical; settings: apparent Ki
# Source text: The inhibition of the prolyl peptidyl cis-trans isomerase activity of FKBP may be measured as an indicator of this affinity.
# The compounds of the invention are shown to inhibit peptidyl-prolyl isomerase (rotamase) activity and can be evaluated by known methods described in the literature (Harding, et al., Nature, 1989, 341:758-760; Holt et al. J. Am. Chem. Soc., 115: 9923-9938). The cis-trans isomerization of an alanine-proline bond in a model substrate, N-succinyl-Ala-Ala-Pro-Phe-p-nitroanilide, is monitored spectrophotometrically in a chymotrypsin-coupled assay, which releases para-nitroanilide from the trans form of the substrate. The inhibition of this reaction caused by the addition of different concentrations of inhibitor is determined, and the data is analyzed as a change in first-order rate constant as a function of inhibitor concentration to yield the apparent Ki values.
# In a plastic cuvette are added […] of ice cold assay buffer (25 mM HEPES, pH 7.8, 100 mM NaCl), 10 mL of FKBP (2.5 mM in 10 mM Tris-Cl pH 7.5, 100 mM NaCl, 1 mM dithiothreitol), 25 mL of chymotrypsin (50 mg/ml in 1 mM HCl) and […] of test compound at various concentrations in dimethyl sulfoxide. The reaction is initiated by the addition of 5 mL of substrate (succinyl-Ala-Phe-Pro-Phe-para-nitroanilide, 5 mg/mL in 2.35 mM LiCl in trifluoroethanol).
# The absorbance at 390 nm versus time is monitored for 90 seconds using a spectrophotometer and the rate constants are determined from the absorbance versus time data files.
# The data for these experiments for representative compounds are presented in Tables II(a) and II(b) under the column “Ki”.
# [2] = test system: chick dorsal root ganglia; assay: Chick dorsal root ganglion cultures and neurite outgrowth; type: cell-based; settings: Gallus gallus, 48 h; read-out: ED50 (the source's name)
# Experimental: Dorsal root ganglia were dissected from chick embryos of ten day gestation. Whole ganglion explants were cultured on thin layer Matrigel-coated 12 well plates with Liebovitz L15 plus high glucose media supplemented with 2 mM glutamine and 10% fetal calf serum, and also containing 10 μM cytosine β-D arabinofuranoside (Ara C) at 37° C. in an environment containing 5% CO2. Twenty-four hours later, the DRGs were treated with various immunophilin ligands. Forty-eight hours after drug treatment, the ganglia were visualized under phase contrast or Hoffman Modulation contrast with a Zeiss Axiovert inverted microscope. Photomicrographs of the explants were made, and neurite outgrowth was quantitated. Neurites longer than the DRG diameter were counted as positive, with total number of neurites quantitated per each experimental condition. Three to four DRGs are cultured per well, and each treatment was performed in duplicate.
# The data for these experiments for representative compounds are presented in Table II(c) under the column “ED50”.
# [3] = test system: TH-positive dopaminergic neurons in the striatum; assay: MPTP model of Parkinson's Disease; type: in vivo; settings: CD1 mice, MPTP 30 mg/kg i.p. 5 days, test compound 4 mg/kg s.c. 10 days, striatum at 18 days
# Experimental: MPTP lesioning of dopaminergic neurons in mice is used as an animal model of Parkinson's Disease. Four week old male CD1 white mice are dosed i.p. with 30 mg/kg of MPTP for 5 days. Test compounds (4 mg/kg), or vehicle, are administered s.c. along with the MPTP for 5 days, as well as for an additional 5 days following cessation of MPTP treatment. At 18 days following MPTP treatment, the animals are sacrificed and the striata dissected and perfusion-fixed.
# Immunostaining is performed on saggital and coronal brain sections using anti-tyrosine hydroxylase […] to quantitate survival and recovery of dopaminergic neurons. In animals treated with MPTP and vehicle, a substantial loss of functional dopaminergic terminals is observed as compared to non-lesioned animals. Lesioned animals receiving test compounds show a significant recovery of TH-stained dopaminergic neurons. This model presents quantitation for the recovery of TH-positive dopaminergic neurons in the striatum of animals receiving the compounds of the present invention. Data for representative control and lesioned animals not receiving the test drugs is also presented against the data from the animals receiving the compounds of the present invention in Table III.
# FKBP12, sequence (P62942 whole entry, species assumed): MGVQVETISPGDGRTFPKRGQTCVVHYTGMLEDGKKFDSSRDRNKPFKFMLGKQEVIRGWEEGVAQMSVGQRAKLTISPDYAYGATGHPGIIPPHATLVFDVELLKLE
smiles,measurement,setting,value
"COc1ccc(CCCSC(=O)[C@@H]2CCCN2S(=O)(=O)Cc2ccccc2)cc1 [Compound 5, 3-(4-Methoxyphenyl)propyl (2S)-1-(benzylsulfonyl)-2-pyrrolidinecarbothioate]",Ki,"[1]; numerical, read-out: Ki",0.022 µM
same,Ki,"[1]; ranked potency, read-out: Kl",0.001 to 0.05 µM
same,EC50,[2],0.001 to 0.05 µM
"COc1ccc(CCCSC(=O)[C@@H]2CCCCN2S(=O)(=O)c2ccc(C)cc2)cc1 (racemic) [Compound 26, 3-(4-Methoxyphenyl)propyl 1-[(4-methylphenyl)sulfonyl]-2-piperidinecarbothioate]",Ki,"[1]; numerical, read-out: Ki",0.659 µM
same,Ki,"[1]; ranked potency, read-out: Kl",> 0.5 µM
O=C(SCCc1ccccc1)C1CCCN1S(=O)(=O)c1ccccc1 (stereo not shown) [Compound 1],EC50,[2],< 0.001 µM
"O=C(SCCCc1ccccc1)[C@@H]1CCCN1S(=O)(=O)Cc1ccccc1 [Compound 23, 3-Phenylpropyl (2S)-1-(benzylsulfonyl)-2-pyrrolidinecarbothioate]",Ki,"[1]; ranked potency, read-out: Kl",0.051 to 0.2 µM
same,% Recovery Tyrosine Hydroxylase,[3],80%
Cc1ccc(S(=O)(=O)N2CCCC2C(=O)SCCc2ccccc2)cc1 (stereo not shown) [Compound 3],EC50,[2],0.001 to 0.05 µM
O=C(SCCC(c1ccccc1)c1ccccc1)C1CCCN1S(=O)(=O)Cc1ccccc1 (stereo not shown) [Compound 8],EC50,[2],< 0.001 µM
O=C(SC(CCCc1ccccc1)CCCc1ccccc1)C1CCCCN1S(=O)(=O)c1ccccc1 (stereo not shown) [Compound 15],EC50,[2],< 0.001 µM
COc1cc(S(=O)(=O)N2CCCCC2C(=O)SCCCCc2ccccc2)cc(OC)c1OC (stereo not shown) [Compound 13],EC50,[2],< 0.001 µM
O=C(SCCC(c1ccccc1)c1ccccc1)C1CCCN1S(=O)(=O)c1ccccc1 (stereo not shown) [Compound 7],EC50,[2],0.001 to 0.05 µM
O=C(SCCc1ccccc1)C1CCCN1S(=O)(=O)Cc1ccccc1 (stereo not shown) [Compound 2],EC50,[2],0.001 to 0.05 µM
"COc1ccc(CCCSC(=O)C2CCCCN2S(=O)(=O)c2ccccc2)cc1 (racemic) [Compound 28, 3-(4-Methoxyphenyl)propyl 1-(phenylsulfonyl)-2-piperidinecarbothioate]",Ki,"[1]; numerical, read-out: Ki",0.196 µM
same,Ki,"[1]; ranked potency, read-out: Kl",0.051 to 0.2 µM
"COc1ccc(CCCSC(=O)[C@@H]2CCCN2S(=O)(=O)c2ccc(C)cc2)cc1 [Compound 6, 3-(4-Methoxyphenyl)propyl (2S)-1-[(4-methylphenyl)sulfonyl]-2-pyrrolidinecarbothioate]",Ki,"[1]; numerical, read-out: Ki",0.145 µM
same,Ki,"[1]; ranked potency, read-out: Kl",0.051 to 0.2 µM
same,EC50,[2],0.051 to 0.2 µM
same,% Recovery Tyrosine Hydroxylase,[3],37%
"CCc1ccc(S(=O)(=O)N2CCC[C@H]2C(=O)SCCc2ccccc2)cc1 [Compound 21, Phenethyl (2S)-1-[(4-ethylphenyl)sulfonyl]-2-pyrrolidinecarbothioate]",Ki,"[1]; numerical, read-out: Ki",0.73 µM
same,Ki,"[1]; ranked potency, read-out: Kl",> 0.5 µM
O=C(SCCCCc1ccccc1)C1CCCCN1S(=O)(=O)Cc1ccccc1 (stereo not shown) [Compound 11],EC50,[2],0.001 to 0.05 µM
"O=C(SCCCc1cccc2ccccc12)[C@@H]1CCCN1S(=O)(=O)Cc1ccccc1 [Compound 24, 3-(1-Naphthyl)propyl (2S)-1-(benzylsulfonyl)-2-pyrrolidinecarbothioate]",Ki,"[1]; numerical, read-out: Ki",0.671 µM
same,Ki,"[1]; ranked potency, read-out: Kl",> 0.5 µM
same,% Recovery Tyrosine Hydroxylase,[3],40%
O=C(SC(CCCc1ccccc1)CCCc1ccccc1)C1CCCCN1S(=O)(=O)Cc1ccccc1 (stereo not shown) [Compound 16],EC50,[2],0.051 to 0.2 µM
"Cc1ccc(S(=O)(=O)N2CCCCC2C(=O)SCCCc2ccc(C(F)(F)F)cc2)cc1 (racemic) [Compound 29, 3-[4-(Trifluoromethyl)phenyl]propyl 1-[(4-methylphenyl)sulfonyl]-2-piperidinecarbothioate]",Ki,"[1]; numerical, read-out: Ki",0.069 µM
same,Ki,"[1]; ranked potency, read-out: Kl",0.051 to 0.2 µM
Cc1ccc(S(=O)(=O)N2CCCCC2C(=O)SCCCCc2ccccc2)cc1 (stereo not shown) [Compound 12],EC50,[2],0.001 to 0.05 µM
"COc1ccc(CCCSC(=O)C2CCCCN2S(=O)(=O)Cc2ccccc2)cc1 (racemic) [Compound 27, 3-(4-Methoxyphenyl)propyl 1-(benzylsulfonyl)-2-piperidinecarbothioate]",Ki,"[1]; numerical, read-out: Ki",0.082 µM
O=C(SCCCCc1ccccc1)C1CCCCN1S(=O)(=O)c1ccccc1 (stereo not shown) [Compound 10],EC50,[2],0.001 to 0.05 µM
O=C(SCCCCc1ccccc1)C1CCCCN1S(=O)(=O)C1CCCCC1 (stereo not shown) [Compound 14],EC50,[2],0.001 to 0.05 µM
"COc1ccc(CCCSC(=O)[C@@H]2CCCN2S(=O)(=O)c2ccccc2)cc1 [Compound 4, 3-(4-Methoxyphenyl)propyl (2S)-1-(phenylsulfonyl)-2-pyrrolidinecarbothioate]",Ki,"[1]; numerical, read-out: Ki",0.204 µM
same,Ki,"[1]; ranked potency, read-out: Kl",0.201 to 0.5 µM
same,EC50,[2],0.051 to 0.2 µM
same,% Recovery Tyrosine Hydroxylase,[3],42%
